Laboratory results published in publication PMC3433420 (PLoS ONE, 2012).
Each block holds one compound with its values, some of them ahead of it. Non-standard residues stand in square brackets, D forms with d. Residues, ends and D or L forms follow the SMILES beside them. No end group written: not given here. pY = N[C@@H](Cc1ccc(OP(=O)(O)O)cc1)C(=O)O

Key:
[1] = target: PIK3R2-NC tandem SH2 domains (Homo sapiens, UniProt O00459); assay: FP saturation binding assay
RASA1-N SH2 domain = target: T1, RASA1-N SH2 domain (Homo sapiens, UniProt P20936); assay: FP saturation binding assay
T1 sequence (P20936 181-272 limits assumed): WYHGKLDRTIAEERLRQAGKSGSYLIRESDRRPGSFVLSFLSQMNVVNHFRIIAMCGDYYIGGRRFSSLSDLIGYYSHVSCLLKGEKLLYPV

SH2 and PTB domains = assay: Sum of relative binding free energies (ΔΔG) from FP KDs, relative to 20 µM threshold; parameters: species or system human;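 unit kcal/mol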; details: summed over the receptor's phosphopeptides
Protocol: In order to further define and classify commonalities and differences among the ErbB family, the relative binding free energy (FE) of each SH2 domain was summed across all phosphosites on each receptor relative to the assay detection threshold of 20 µM according to Equation (3): [drawing 10] (3)

Chain of PIK3R2-NC tandem SH2 domains (O00459 330-716 limits assumed): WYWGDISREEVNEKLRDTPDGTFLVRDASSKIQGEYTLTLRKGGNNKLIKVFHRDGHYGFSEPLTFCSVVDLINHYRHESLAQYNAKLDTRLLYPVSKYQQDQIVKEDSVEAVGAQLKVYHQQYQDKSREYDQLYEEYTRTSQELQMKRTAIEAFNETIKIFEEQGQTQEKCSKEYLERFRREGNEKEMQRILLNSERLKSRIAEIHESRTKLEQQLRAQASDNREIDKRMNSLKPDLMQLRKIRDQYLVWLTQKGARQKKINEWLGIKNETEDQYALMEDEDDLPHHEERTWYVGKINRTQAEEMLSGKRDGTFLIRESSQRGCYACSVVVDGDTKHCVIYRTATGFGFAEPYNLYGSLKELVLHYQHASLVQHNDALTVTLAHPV

Compound: CSCC[C@H](NC(=O)[C@H](Cc1ccc(OP(=O)(O)O)cc1)NC(=O)[C@H](CCC(=O)O)NC(=O)[C@H](Cc1ccc(O)cc1)NC(=O)[C@H](CC(=O)O)NC(=O)[C@@H](N)CCC(=O)O)C(=O)N[C@@H](CC(N)=O)C(=O)N[C@@H](CCCNC(=N)N)C(=O)N[C@@H](CCC(N)=O)C(=O)N[C@@H](CCCNC(=N)N)C(=O)N[C@@H](CC(=O)O)C(=O)NCC(=O)N[C@@H](CC(=O)O)C(=O)O [ErbB3 1262 13-mer] (HELM PEPTIDE1{E.D.Y.E.[O=C([C@H](Cc1ccc(OP(=O)(O)O)cc1)N[*:1])[*:2]].M.N.R.Q.R.D.G.D}$$$$V2.0)
Kd [1]: 18.1 µM
Kd (RASA1-N SH2 domain): 9.06 µM

Compound: CC(C)C[C@H](NC(=O)[C@H](CCCNC(=N)N)NC(=O)[C@H](C)NC(=O)[C@H](Cc1ccc(OP(=O)(O)O)cc1)NC(=O)[C@H](Cc1c[nH]cn1)NC(=O)[C@@H](NC(=O)[C@H](Cc1c[nH]cn1)NC(=O)[C@@H]1CCCN1)C(C)C)C(=O)N[C@@H](CCCCN)C(=O)N[C@H](C(=O)N[C@@H](CC(C)C)C(=O)N[C@@H](CCCNC(=N)N)C(=O)N[C@@H](CC(=O)O)C(=O)O)[C@@H](C)O [ErbB3pY1307] (HELM PEPTIDE1{P.H.V.H.[O=C([C@H](Cc1ccc(OP(=O)(O)O)cc1)N[*:1])[*:2]].A.R.L.K.T.L.R.D}$$$$V2.0)
Kd (RASA1-N SH2 domain): 1.88 µM

Sum free energies (ΔΔG) (SH2 and PTB domains; domain ABL1): 0.48
Sum free energies (ΔΔG) (SH2 and PTB domains; domain ABL2): 1.81
Sum free energies (ΔΔG) (SH2 and PTB domains; domain BCAR3): 1.81
Sum free energies (ΔΔG) (SH2 and PTB domains; domain BLK): 4.66
Sum free energies (ΔΔG) (SH2 and PTB domains; domain BLNK): 1.99
Sum free energies (ΔΔG) (SH2 and PTB domains; domain BMX): 0.00
Sum free energies (ΔΔG) (SH2 and PTB domains; domain BTK): 0.53
Sum free energies (ΔΔG) (SH2 and PTB domains; domain CRK): 2.18
Sum free energies (ΔΔG) (SH2 and PTB domains; domain CRKL): 0.00
Sum free energies (ΔΔG) (SH2 and PTB domains; domain DAPP1): 0.00
Sum free energies (ΔΔG) (SH2 and PTB domains; domain FER): 1.84
Sum free energies (ΔΔG) (SH2 and PTB domains; domain FES): 2.60
Sum free energies (ΔΔG) (SH2 and PTB domains; domain FGR): 2.50
Sum free energies (ΔΔG) (SH2 and PTB domains; domain GRAP2): 0.40
Sum free energies (ΔΔG) (SH2 and PTB domains; domain GRB2): 0.00
Sum free energies (ΔΔG) (SH2 and PTB domains; domain GRB7): 8.74
Sum free energies (ΔΔG) (SH2 and PTB domains; domain GRB10): 0.00
Sum free energies (ΔΔG) (SH2 and PTB domains; domain GRB14): 0.00
Sum free energies (ΔΔG) (SH2 and PTB domains; domain HCK): 5.34
Sum free energies (ΔΔG) (SH2 and PTB domains; domain HSH2D): 2.34
Sum free energies (ΔΔG) (SH2 and PTB domains; domain INPPL1): 1.51
Sum free energies (ΔΔG) (SH2 and PTB domains; domain ITK): 1.44
Sum free energies (ΔΔG) (SH2 and PTB domains; domain LCK): 9.34
Sum free energies (ΔΔG) (SH2 and PTB domains; domain LCP2): 1.08
Sum free energies (ΔΔG) (SH2 and PTB domains; domain LYN): 6.66
Sum free energies (ΔΔG) (SH2 and PTB domains; domain MATK): 2.34
Sum free energies (ΔΔG) (SH2 and PTB domains; domain NCK1): 1.97
Sum free energies (ΔΔG) (SH2 and PTB domains; domain NCK2): 2.78
Sum free energies (ΔΔG) (SH2 and PTB domains; domain PIK3R1-C): 15.79
Sum free energies (ΔΔG) (SH2 and PTB domains; domain PIK3R1-N): 15.42
Sum free energies (ΔΔG) (SH2 and PTB domains; domain PIK3R1-NC): 18.21
Sum free energies (ΔΔG) (SH2 and PTB domains; domain PIK3R2-C): 4.66
Sum free energies (ΔΔG) (SH2 and PTB domains; domain PIK3R2-N): 15.58
Sum free energies (ΔΔG) (SH2 and PTB domains; domain PIK3R2-NC): 17.40
Sum free energies (ΔΔG) (SH2 and PTB domains; domain PIK3R3-C): 14.57
Sum free energies (ΔΔG) (SH2 and PTB domains; domain PIK3R3-N): 18.45
Sum free energies (ΔΔG) (SH2 and PTB domains; domain PIK3R3-NC): 23.70
Sum free energies (ΔΔG) (SH2 and PTB domains; domain PLCG1-C): 12.45
Sum free energies (ΔΔG) (SH2 and PTB domains; domain PLCG1-N): 2.23
Sum free energies (ΔΔG) (SH2 and PTB domains; domain PLCG1-NC): 12.83
Sum free energies (ΔΔG) (SH2 and PTB domains; domain PLCG2-N): 0.60
Sum free energies (ΔΔG) (SH2 and PTB domains; domain PLCG2-NC): 3.76
Sum free energies (ΔΔG) (SH2 and PTB domains; domain PTK6): 7.16
Sum free energies (ΔΔG) (SH2 and PTB domains; domain PTPN6-C): 0.00
Sum free energies (ΔΔG) (SH2 and PTB domains; domain PTPN6-NC): 0.00
Sum free energies (ΔΔG) (SH2 and PTB domains; domain PTPN11-C): 0.00
Sum free energies (ΔΔG) (SH2 and PTB domains; domain PTPN11-N): 4.57
Sum free energies (ΔΔG) (SH2 and PTB domains; domain PTPN11-NC): 4.70
Sum free energies (ΔΔG) (SH2 and PTB domains; domain RASA1-C): 0.68
Sum free energies (ΔΔG) (SH2 and PTB domains; domain RASA1-N): 11.64
Sum free energies (ΔΔG) (SH2 and PTB domains; domain RASA1-NC): 10.86
Sum free energies (ΔΔG) (SH2 and PTB domains; domain SH2B2): 0.53
Sum free energies (ΔΔG) (SH2 and PTB domains; domain SH2B3): 5.05
Sum free energies (ΔΔG) (SH2 and PTB domains; domain SH2B): 1.60
Sum free energies (ΔΔG) (SH2 and PTB domains; domain SH2D1A): 6.64
Sum free energies (ΔΔG) (SH2 and PTB domains; domain SH2D1B): 6.98
Sum free energies (ΔΔG) (SH2 and PTB domains; domain SH2D2A): 10.39
Sum free energies (ΔΔG) (SH2 and PTB domains; domain SH2D3A): 0.00
Sum free energies (ΔΔG) (SH2 and PTB domains; domain SH2D3C): 5.13
Sum free energies (ΔΔG) (SH2 and PTB domains; domain SH3BP2): 1.31
Sum free energies (ΔΔG) (SH2 and PTB domains; domain SHB): 1.08
Sum free energies (ΔΔG) (SH2 and PTB domains; domain SHC1-PTB): 8.01
Sum free energies (ΔΔG) (SH2 and PTB domains; domain SHC1): 3.41
Sum free energies (ΔΔG) (SH2 and PTB domains; domain SHC2-PTB): 4.78
Sum free energies (ΔΔG) (SH2 and PTB domains; domain SHC3): 0.95
Sum free energies (ΔΔG) (SH2 and PTB domains; domain SHC4): 1.50
Sum free energies (ΔΔG) (SH2 and PTB domains; domain SHD): 1.64
Sum free energies (ΔΔG) (SH2 and PTB domains; domain SHE): 0.00
Sum free energies (ΔΔG) (SH2 and PTB domains; domain SHF): 0.00
Sum free energies (ΔΔG) (SH2 and PTB domains; domain SLA2): 4.59
Sum free energies (ΔΔG) (SH2 and PTB domains; domain SLA): 0.46
Sum free energies (ΔΔG) (SH2 and PTB domains; domain SOCS1): 0.00
Sum free energies (ΔΔG) (SH2 and PTB domains; domain SOCS2): 2.96
Sum free energies (ΔΔG) (SH2 and PTB domains; domain SOCS3): 4.06
Sum free energies (ΔΔG) (SH2 and PTB domains; domain SOCS5): 6.74
Sum free energies (ΔΔG) (SH2 and PTB domains; domain SOCS6): 6.61
Sum free energies (ΔΔG) (SH2 and PTB domains; domain SRC): 9.70
Sum free energies (ΔΔG) (SH2 and PTB domains; domain STAP1): 1.44
Sum free energies (ΔΔG) (SH2 and PTB domains; domain SUPT6H): 0.00
Sum free energies (ΔΔG) (SH2 and PTB domains; domain SYK-C): 0.00
Sum free energies (ΔΔG) (SH2 and PTB domains; domain SYK-N): 0.00
Sum free energies (ΔΔG) (SH2 and PTB domains; domain SYK-NC): 2.08
Sum free energies (ΔΔG) (SH2 and PTB domains; domain TEC): 0.70
Sum free energies (ΔΔG) (SH2 and PTB domains; domain TENC1): 3.35
Sum free energies (ΔΔG) (SH2 and PTB domains; domain TNS1): 3.92
Sum free energies (ΔΔG) (SH2 and PTB domains; domain TNS3): 4.07
Sum free energies (ΔΔG) (SH2 and PTB domains; domain TNS4): 0.67
Sum free energies (ΔΔG) (SH2 and PTB domains; domain TXK): 1.88
Sum free energies (ΔΔG) (SH2 and PTB domains; domain VAV1): 2.95
Sum free energies (ΔΔG) (SH2 and PTB domains; domain VAV2): 5.08
Sum free energies (ΔΔG) (SH2 and PTB domains; domain VAV3): 5.15
Sum free energies (ΔΔG) (SH2 and PTB domains; domain YES1): 10.32
Sum free energies (ΔΔG) (SH2 and PTB domains; domain ZAP70-C): 0.57
Sum free energies (ΔΔG) (SH2 and PTB domains; domain ZAP70-N): 0.00
Sum free energies (ΔΔG) (SH2 and PTB domains; domain ZAP70-NC): 6.20
Compound: ErbB3 (SEQG[pY]EEMRAFQD)

Kd (RASA1-N SH2 domain): 3.69 µM
Compound: FDNLYYWDQDPPD [ErbB2 Y1221 (non-phospho)]
